What was measured:
A549 cells = experiment: Combination with bortezomib, A549 cell confluency (Incucyte); format: cell-based; conditions: 1 nM alone, two independent experiments
Method: A549 cells were seeded in log phase (e.g., at 40-60% confluency) in a well plate. Drug treatments were: no drug treatment, DMSO, bortezomib at 50 nM, 10 nM, 5 nM, 2 nM or 1 nM, Example No. 13 at 10 nM, and bortezomib 50 nM, 10 nM, 5 nM, 2 nM or 1 nM combined with Example No. 13 at 10 nM. The DMSO concentrations were kept constant (including DMSO control) to control for any confounding DMSO toxicity.
Drug addition protocol: On day 1, cells were seeded at 60,000 cells/well, and incubated for 24 hours to allow adherence. On day 2, media was aspirated and replaced with 500 μl of the drug media preparations described below in correlating wells. The plates were placed in Incucyte for 7-14 days, and cell confluency was measured every 2 hours. […]

TNK1 [1] = target: T1, TNK1 (Homo sapiens, UniProt Q13470); experiment: RBC HotSpot Kinase Assay; format: biochemical; set-up: purchased Reaction Biology Corp., Malvern, Pa; conditions: ATP 10 μM
T1 sequence (Q13470 1-666): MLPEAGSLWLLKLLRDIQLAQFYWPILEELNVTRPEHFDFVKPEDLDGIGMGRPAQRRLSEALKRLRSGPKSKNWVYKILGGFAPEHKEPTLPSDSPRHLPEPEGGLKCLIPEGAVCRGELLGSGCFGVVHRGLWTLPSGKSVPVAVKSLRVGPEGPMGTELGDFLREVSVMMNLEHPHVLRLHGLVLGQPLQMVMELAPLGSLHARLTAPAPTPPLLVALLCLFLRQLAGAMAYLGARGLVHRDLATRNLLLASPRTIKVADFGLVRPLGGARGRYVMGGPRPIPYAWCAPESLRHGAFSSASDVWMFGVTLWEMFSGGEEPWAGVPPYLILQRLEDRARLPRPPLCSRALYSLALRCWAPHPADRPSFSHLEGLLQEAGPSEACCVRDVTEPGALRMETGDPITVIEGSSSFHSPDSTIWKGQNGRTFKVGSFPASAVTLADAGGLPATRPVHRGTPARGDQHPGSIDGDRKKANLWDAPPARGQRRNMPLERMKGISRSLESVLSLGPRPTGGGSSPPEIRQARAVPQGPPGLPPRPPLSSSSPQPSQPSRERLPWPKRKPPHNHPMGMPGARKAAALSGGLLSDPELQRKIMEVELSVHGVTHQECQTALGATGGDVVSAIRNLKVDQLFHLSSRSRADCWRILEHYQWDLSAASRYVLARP
Method: The RBC HotSpot Kinase assay (Reaction Biology Corp., Malvern, Pa.) was used to evaluate the ability of test compounds to modulate (e.g., inhibit) the enzymatic activity of human TNK1 (UniProt Accession No. Q13470) in the following reaction:
Reagent: Base Reaction buffer; 20 mM Hepes (pH 7.5), 10 mM MgCl2, 1 mM EGTA, 0.02% Brij35, 0.02 mg/ml BSA, 0.1 mM Na3VO4, 2 mM DTT, 1% DMSO. Required cofactors were added individually to each kinase reaction.
Compound handling: Test compounds were dissolved in 100% DMSO to specific concentration. The serial dilution was conducted by Integra Viaflo Assist in DMSO.
1. Prepared substrate (peptide substrate, poly[Glu:Tyr] (4:1), 0.2 mg/ml; ATP 10 μM) in freshly prepared Reaction Buffer;
2. Delivered any required cofactors to the substrate solution;
3. Delivered kinase (TNK1) into the substrate solution and gently mixed;
4. Delivered compounds in 100% DMSO into the kinase reaction mixture by Acoustic technology (Echo550; nanoliter range), incubated for 20 minutes at room temperature;
5. Delivered ^33P-ATP (specific activity 10 μCi/μl) into the reaction mixture to initiate the reaction;
6. Incubated for 2 hours at room temperature;
7. Detected radioactivity by filter-binding method;
8. Kinase activity data were expressed as the percent remaining kinase activity in test samples compared to vehicle (dimethyl sulfoxide) reactions. IC50 values and curve fits were obtained using Prism (GraphPad Software).

TNK1 [2] = target: T1, TNK1; experiment: TNK1 NanoBRET target engagement assay (HEK293); format: cell-based; set-up: host or cells: HEK293; conditions: HEK293 cells, 2 hours; read-out: NanoBRET TE Assay (HEK293) IC50
Description: The NanoBRET target engagement (TE) assay (Promega, Madison, Wis.) enables the interrogation of the displacement of a tracer compound in the active site of a recombinant kinase by a test compound in the intracellular setting. The assay enables simultaneous testing of permeability, solubility, and kinase inhibition, and tests the specific interaction of test agents with a kinase of interest, here, TNK1. The assay is based on the principle of bioluminescence resonance energy transfer (BRET). In the assay, a plasmid-encoded, luciferase-tagged form of TNK1 is transfected into cells. A tracer compound is tagged with a fluorophore that fluoresces when bound to the TNK1 protein. Readout is luminescence and fluorescence. Test compounds show activity by displacing the tracer, thus disrupting BRET.
Methods: The TNK1 NanoBRET TE assays were performed according to the manufacturer's protocol. Briefly, Nanoluc-TNK1 Fusion Vector (Promega, Madison, Wis., Cat. No. NV2181) was transfected into HEK293 cells in bulk (8×10^6 cells in a T175 flask). Up to 30 hours post-transfection, cells were harvested by trypsinization, resuspended at a concentration of 2×10^5 cells/mL, and seeded in 96-well plates at 85 μL/well. A test compound and the K5 tracer were added to each well, and the cells were incubated for 2 hours. Luminescence ([…]) and fluorescence ([…]) were measured to determine a BRET ratio. IC50 values were determined from the BRET ratios using the Graphpad Prism software (GraphPad Software, San Diego, Calif.).

[3] = system: phospho-STAT5 in L540 cells; experiment: In vitro pSTAT5 assay (ELISA) in L540 cells; format: cell-based; conditions: Homo sapiens, L-540, 24 hours, normalized to cell viability, read-out: P-STAT5 Assay IC50
Method: The L540 cell line harbors a truncating mutation in the C-terminal regulatory region of the protein. As a consequence, TNK1 in L540 cells is constitutively active in phosphorylating key proteins, including STAT5. In TNK1 wild-type conditions (e.g., K562 CML cells), STAT5 phosphorylation is achieved in a TNK1-independent fashion. As such, reductions in phospho-STAT5 signal specific to the L540 cells are a good readout of TNK1 inhibitor function.
Methods: The in vitro pSTAT5 assay was performed with STAT5 AB (pY964/699) SimpleStep ELISA Kit (Abcam No. ab176656) according to the manufacturer's protocol. Briefly, L540 cells were grown in RPMI1640 media under standard culture conditions (10% FBS with penicillin/streptomycin). To assess test compound effects, cells were plated in 96 well plates (250,000 cells/mL) and allowed to grow overnight. Cells were subsequently treated with varying concentrations of test compound for 24 hours, before being harvested and interrogated with the STAT5 AB (pY964/699) SimpleStep ELISA Kit according to the manufacturer's protocol. Phospho-STAT5 signal was normalized to cell viability, as assessed by the CellTiter-Glo assay (Promega, Cat. No. G7570) on treated cells. TNK1 inhibitor IC50s were determined using Graphpad Prism software on normalized phospho-STAT5 measurements.

CC(C)C[C@H](NC(=O)[C@H](Cc1ccccc1)NC(=O)c1cnccn1)B(O)O [Bortezomib, bortezomib, reference compound]
cell growth inhibition, alone (A549 cells): no inhibition of cell growth

CN1CCN(c2c(Cl)cc(Nc3ncc(Cl)c(Nc4cccnc4N(C)C)n3)c3ccccc23)CC1 [compound 7, 5-chloro-N^2-(3-chloro-4-(4-methylpiperazin-1-yl)naphthalen-1-yl)-N^4-(2-(dimethylamino)pyridin-3-yl)pyrimidine-2,4-diamine]
IC50 (TNK1 [1]): < 5 nM
IC50 (TNK1 [2]): > 1000 nM
IC50 [3]: 5 to 50 nM

COc1cc(N2CCN(C)CC2)c(C)cc1Nc1ncc(Cl)c(Nc2cccnc2N2CCCC2)n1 [compound 8, 5-chloro-N^2-(2-methoxy-5-methyl-4-(4-methylpiperazin-1-yl)phenyl)-N^4-(2-(pyrrolidin-1-yl)pyridin-3-yl)pyrimidine-2,4-diamine]
IC50 (TNK1 [1]): < 5 nM
IC50 (TNK1 [2]): 150 to 1000 nM
IC50 [3]: 5 to 50 nM

COc1cc(N2CCN(C)CC2)c(C)cc1Nc1ncc(I)c(Nc2cccnc2N(C)C)n1 [compound 11, N^4-(2-(dimethylamino)pyridin-3-yl)-5-iodo-N^2-(2-methoxy-5-methyl-4-(4-methylpiperazin-1-yl)phenyl)pyrimidine-2,4-diamine]
IC50 (TNK1 [1]): < 5 nM
IC50 (TNK1 [2]): 150 to 1000 nM
IC50 [3]: 5 to 50 nM

— US11529350B2, “Tyrosine kinase non-receptor 1 (TNK1) inhibitors and uses thereof” (Sumitomo Pharma Oncology, Inc., priority 2019, dated 2022)
